In brackets after ≈: the same amount, converted by molar mass. Where two headings read alike, the source gives them in different places. Non-standard residues stand in square brackets, D forms with d. Residues, ends and D or L forms follow the SMILES beside them. *: point of attachment. PEG4 = NCCOCCOCCOCCOCCC(=O)O; Octanoyl = CCCCCCCC(=O)*; Butyryl = CCCC(=O)*
Columns and labels:
Ser-3-n-octanoyl ghrelin = test: Competition ELISA of plasma of immunized mice (Kd-app for ghrelin); format: binding; details: Tables 4A and 4B
Description: Immunization involved five (5) immunizations over ten (10) weeks. Age and weight-matched mice received immunizations (i.p. 0.2 mL) 90 min before the dark cycle on experimental days 0, 14 (2 weeks), 28 (4 weeks), 49 (7 weeks) and 70 (10 weeks). All immunizations used ALUM (Pierce) as the adjuvant, and contained 50 μg of protein (i.e. immunoconjugates of Ghr1, Ghr2, PEG-Ghr4 and PEG-Ghr5 peptides with carrier proteins KLH, TT or CRM197). Tail blood was collected one week post-immunization, centrifuged and plasma analyzed for antibody titers and ghrelin binding affinity.
For competitive ELISA, plates (96-well) were coated overnight at 4° C. with freshly prepared ghrelin-BSA conjugate. The plates were blocked with 4% skim milk, washed and plasma samples were added at appropriate dilutions. The plates were washed and Ser-3-n-octanoyl ghrelin was added to the wells in a concentration series starting at 100 μM. Plates were incubated for 1 h at 37° C., thoroughly washed, and goat anti-mouse-horseradish peroxidase (HRP) conjugate (Pierce) was added. After an incubation period of 1 h at RT, plates were thoroughly washed again and the HRP substrate (TMB substrate kit; Pierce) was added, the reaction was allowed to develop for 15 min and stopped by the addition of 2M H2SO4. The absorbance (450 nm) was read and the values plotted using GraFit (Erithacus Software Ltd). The free antigen concentration at which the absorbance value is 50% of the maximum absorbance was considered the average Kd-app of the plasma for ghrelin.

physchem = details: water
[1] = not given; remark: listed apart in the source
[2] = Hydrolytic stability of ghrelin haptens in buffered solutions for 7 days; format: physicochemical
Description: To test the hydrolytic stability of the Ghrelin haptens, 1 mg/mL solutions of Ghr1, Ghr4, Ghr5 and the corresponding Ghr4 and Ghr5 haptens comprising the spacer moiety (PEG-Ghr4 and PEG-Ghr5 respectively) were maintained in buffered solutions for 7 days at either 4° C. or 37° C. at pH values of pH5 (in 10 mM citrate buffer), pH6 (in 10 mM maleate buffer) or pH7 (in 10 mM phosphate buffer). FIG. 2 is a graphical representation comparing the percentage of the active acyl form of each Ghrelin hapten present after seven days with the percentage of total hydrolysis and the percentage of total oxidative degradation for each hapten.

Compound | Affinity of induced anti-ghrelin antibodies (Ser-3-n-octanoyl ghrelin) | Selectivity of induced antibodies for acylated ghrelin over the des-acyl form (Ser-3-n-octanoyl ghrelin) | solubility (physchem; pH 5) | solubility (physchem; pH 6) | solubility (physchem; pH 7) | Solubility of hapten at pH5 | further results
CCCC(=O)OC[C@H](NC(=O)[C@H](CO)NC(=O)CN)C(=O)N[C@@H](Cc1ccccc1)C(=O)N[C@@H](CC(C)C)C(=O)N[C@@H](CO)C(=O)N1CCC[C@H]1C(=O)N[C@@H](CCC(=O)O)C(=O)N[C@@H](Cc1c[nH]cn1)C(=O)N[C@@H](CCC(N)=O)C(=O)N[C@@H](CS)C(N)=O [Ghr1] | high affinity anti-ghrelin antibodies in some instances | no particular selectivity | > 1000 µg/mL | > 1000 µg/mL | > 1000 µg/mL | – | –
CC(C)C[C@H](NC(=O)[C@H](CCCCN)NC(=O)[C@H](C)NC(=O)[C@@H]1CCCN1C(=O)[C@@H]1CCCN1C(=O)[C@H](CCCCN)NC(=O)[C@H](CCCCN)NC(=O)[C@H](CO)NC(=O)[C@H](CCC(=O)O)NC(=O)[C@H](CCCCN)NC(=O)[C@H](CCCNC(=N)N)NC(=O)[C@H](CCC(N)=O)NC(=O)[C@H](CCC(N)=O)NC(=O)[C@@H](N)CS)C(=O)N[C@@H](CCC(N)=O)C(=O)N1CCC[C@H]1C(=O)N[C@@H](CCCNC(=N)N)C(N)=O [Ghr2] | high affinity anti-ghrelin antibodies in some instances | no particular selectivity | > 1000 µg/mL | > 1000 µg/mL | > 1000 µg/mL | – | –
CCCC(=O)OC[C@H](NC(=O)[C@H](CO)NC(=O)CN)C(=O)N[C@@H](Cc1ccccc1)C(=O)N[C@@H](CC(C)C)C(=O)N[C@@H](CS)C(N)=O [Ghr4, GSS(butyryl)FLC-NH2] (H-GSS(Butyryl)FLC-NH2) | – | – | – | > 1000 µg/mL | < 100 µg/mL | insoluble | –
CCCCCCCC(=O)OC[C@H](NC(=O)[C@H](CO)NC(=O)CN)C(=O)N[C@@H](Cc1ccccc1)C(=O)N[C@@H](CC(C)C)C(=O)N[C@@H](CS)C(N)=O [Ghr5, GSS(octanoyl)FLC-NH2] (H-GSS(Octanoyl)FLC-NH2) | – | – | – | – | – | insoluble | Solubility of hapten at pH6 (pH6): insoluble; Solubility of hapten at pH7 (pH7): insoluble
CCCC(=O)OC[C@H](NC(=O)[C@H](CO)NC(=O)CN)C(=O)N[C@@H](Cc1ccccc1)C(=O)N[C@@H](CC(C)C)C(=O)NCCOCCOCCOCCOCCC(=O)N[C@@H](CS)C(N)=O [PEG-Ghr4, GSS(butyryl)FL-PEG4-C-NH2] (H-GSS(Butyryl)FL[PEG4]C-NH2) | – | – | – | – | – | – | solubility ([1]; pH5): > 1000 µg/mL; solubility ([1]; pH6): > 1000 µg/mL; solubility ([1]; pH7): > 1000 µg/mL
CCCCCCCC(=O)OC[C@H](NC(=O)[C@H](CO)NC(=O)CN)C(=O)N[C@@H](Cc1ccccc1)C(=O)N[C@@H](CC(C)C)C(=O)NCCOCCOCCOCCOCCC(=O)N[C@@H](CS)C(N)=O [PEG-Ghr5, GSS(octanoyl)FL-PEG4-C-NH2] (H-GSS(Octanoyl)FL[PEG4]C-NH2) | – | – | > 1000 µg/mL | > 1000 µg/mL | ~400 µg/mL (≈ 406 µM) | – | Hydrolysis relative to Ghr5 without the spacer moiety ([2]; 7 days, FIG. 2): less hydrolysis; Oxidative degradation relative to Ghr5 without the spacer moiety ([2]; 7 days, FIG. 2): significantly reduced oxidative degradation; Hydrolysis compared with native protein (rGhrelin) ([2]; pH 5, 7 days, 4° C.): approximately the same amount of hydrolysis as the native protein; Oxidative degradation compared with Ghr5 hapten ([2]; pH 5, 7 days, 4° C.): significantly less oxidative degradation

— patent US9695222B2, “Ghrelin mimetic polypeptide hapten immunoconjugates having improved solubility and immunogenicity and methods of use thereof” (The Scripps Research Institute, priority 2011, dated 2017)
